These results are taken from ChEMBL document CHEMBL1201862, “PubChem BioAssay data set” (2004).

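Test compounds were applied to cells in 96-well plates for 48 hours at 5 doses. GI50: concentration for 50% inhibition of growth.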 Activity calls are given as the source filed them. Cut-off read from the data, not from the text of the source: active = GI50 up to about 1.1 µM and inactive = higher.

Some test systems named below: 786-0; DU-145; Hs-578T; IGROV-1; KM12; MDA-MB-231; MDA-MB-435; Malme-3M; NCI-H23; OVCAR-8; RPMI-8226; RXF 393; SF-268; SF-295; SF-539; SN12C; SNB-19; SNB-75; SW-620; TK-10.
Holding throughout (assay): NCI tumour cell line growth inhibition, 48 h

On to `CCOC(=O)c1cc(C2=CCNC2=O)c(-c2cc(C)no2)[nH]1`, for which the GI50 with 786-0 was 40 µM (inactive); in the test on DU-145, > 100 µM (inactive); in the test with Hs-578T it was 95.5 µM (inactive); in the test with IGROV-1, 75.3 µM (inactive); in the test on KM12 it was 59.8 µM (inactive); in the test with MDA-MB-231, 36.4 µM (inactive). The GI50 in the test on MDA-MB-435 is > 100 µM (inactive); with Malme-3M, > 100 µM (inactive); in the test with NCI-H23 it was > 100 µM (inactive); with OVCAR-8, 45 µM (inactive); in the test on RPMI-8226, 36.7 µM (inactive); in the test on RXF 393 it was 49.2 µM (inactive). Also, the GI50 in the test on SF-268 was > 100 µM (inactive); with SF-295, 29.8 µM (inactive); with SF-539 it was > 100 µM (inactive); with SN12C it was > 100 µM (inactive); in the test with SNB-19, > 100 µM (inactive); in the test on SNB-75, 34 µM (inactive). Further, the values for the GI50 with SW-620 and in the test on TK-10 were 80.2 µM (inactive) and > 100 µM (inactive), respectively.

Regarding `CN(CC(=O)O)Cc1c[nH]c2ccccc12`, the GI50 in the test on 786-0, in the test with DU-145, with Hs-578T, with IGROV-1, in the test on KM12 and in the test with MDA-MB-231 was > 100 µM (inactive) throughout. Also, the GI50 in the test on MDA-MB-435, in the test on Malme-3M, in the test on NCI-H23, in the test on OVCAR-8, with RPMI-8226 and with RXF 393 was > 100 µM (inactive) throughout. The GI50 with SF-268, with SF-295, in the test on SF-539, in the test with SN12C, with SNB-19 and with SNB-75 was > 100 µM (inactive) in each case. In addition, the GI50 in the test with SW-620 and with TK-10 was > 100 µM (inactive) throughout.

In the case of `c1ccc2c(c1)ncn2C1CCCCO1` (stereo not given), the GI50 with 786-0, with DU-145, in the test on Hs-578T, with IGROV-1, in the test with KM12 and with MDA-MB-231 was > 100 µM (inactive) in each case. In addition, the GI50 with MDA-MB-435, with Malme-3M, in the test with NCI-H23, in the test with OVCAR-8, with RPMI-8226 and in the test with RXF 393 was > 100 µM (inactive) throughout. For the same compound, the GI50 in the test on SF-268, in the test with SF-295, with SF-539, with SN12C, with SNB-19 and in the test on SNB-75 was > 100 µM (inactive) throughout. In addition, the GI50 with SW-620 and in the test with TK-10 was > 100 µM (inactive) in each case.

Turning to `COC(=O)CCCCC/C(=C\C(=O)C(Cl)(Cl)Cl)OC`, the GI50 with 786-0 is 24.9 µM (inactive); in the test on DU-145, 25.5 µM (inactive); in the test with Hs-578T, 26.4 µM (inactive); with IGROV-1, 12.7 µM (inactive); in the test with KM12, 26.4 µM (inactive); in the test with MDA-MB-231, 80 µM (inactive). The GI50 was 22.9 µM (inactive) in the test with MDA-MB-435; 21.1 µM (inactive) in the test on Malme-3M; 31.8 µM (inactive) with NCI-H23; 25.4 µM (inactive) in the test with OVCAR-8; 20.4 µM (inactive) in the test on RPMI-8226; 16.7 µM (inactive) with RXF 393. The GI50 in the test with SF-268 was 24.4 µM (inactive); with SF-295, 43.3 µM (inactive); with SF-539, 18.6 µM (inactive); in the test on SN12C, 33.5 µM (inactive); with SNB-19 it was 48.2 µM (inactive); in the test with SNB-75 it was 21.4 µM (inactive). Moreover, the GI50 in the test with SW-620 was 31.7 µM (inactive); in the test on TK-10, 29.4 µM (inactive).

As for `Cc1sc(C)c2c1C(=O)CC2N` (stereo not given), the GI50 with 786-0 is 7.98 µM (inactive); in the test on DU-145, 15.9 µM (inactive); in the test with Hs-578T, 44.8 µM (inactive); in the test with IGROV-1, 34.7 µM (inactive); with KM12, 16.4 µM (inactive); in the test on MDA-MB-231, 22.7 µM (inactive). Besides, the GI50 with MDA-MB-435 is 20.8 µM (inactive); in the test with Malme-3M it was 13.7 µM (inactive); with NCI-H23, 32.1 µM (inactive); in the test with OVCAR-8 it was 21.5 µM (inactive); in the test on RPMI-8226, 2.7 µM (inactive); in the test with RXF 393, 16.3 µM (inactive). Also, the GI50 with SF-268 was > 40.9 µM (inactive); with SF-295 it was > 100 µM (inactive); in the test on SF-539, 3.26 µM (inactive); in the test on SN12C, 24.2 µM (inactive); with SNB-19, > 94.4 µM (inactive); with SNB-75 it was > 50.1 µM (inactive). Also, the GI50 in the test with SW-620 is 6 µM (inactive); with TK-10, 19.1 µM (inactive).

On to `O=c1c2ncn(C3CCCCO3)c2n(-c2ccccc2)c(=S)n1-c1ccccc1` (stereo not given), for which the GI50 with 786-0 is 16.4 µM (inactive); in the test with DU-145 it was > 71.3 µM (inactive); in the test with Hs-578T, 10.1 µM (inactive); with IGROV-1, 28.6 µM (inactive); in the test on KM12 it was > 76.4 µM (inactive); in the test with MDA-MB-231, 26.2 µM (inactive). The GI50 is > 67.6 µM (inactive) with MDA-MB-435; > 41.5 µM (inactive) in the test on Malme-3M; 31.4 µM (inactive) in the test with NCI-H23; 19 µM (inactive) with OVCAR-8; > 52.7 µM (inactive) in the test with RPMI-8226; 7.8 µM (inactive) with RXF 393. For the same compound, the GI50 was 11 µM (inactive) with SF-268; 16.1 µM (inactive) with SF-295; 10.8 µM (inactive) with SF-539; 56.6 µM (inactive) in the test with SN12C; 21.5 µM (inactive) in the test on SNB-19; 7.69 µM (inactive) in the test with SNB-75. The GI50 is > 65.9 µM (inactive) in the test on SW-620 and 31.9 µM (inactive) in the test on TK-10.

As to `COc1ccc(C=O)cc1OS(=O)(=O)C(F)(F)C(F)(F)C(F)(F)C(F)(F)F`, the GI50 in the test on 786-0 is 31.6 µM (inactive); with DU-145, > 68.2 µM (inactive); in the test on Hs-578T, 22.6 µM (inactive); in the test on IGROV-1 it was 24.9 µM (inactive); with KM12, 28.4 µM (inactive); in the test on MDA-MB-231 it was 23.6 µM (inactive). In addition, the GI50 was 19.9 µM (inactive) in the test on MDA-MB-435; 23.4 µM (inactive) with Malme-3M; 32.1 µM (inactive) in the test with NCI-H23; 28.1 µM (inactive) with OVCAR-8; 21.8 µM (inactive) with RPMI-8226; 21.3 µM (inactive) in the test on RXF 393. The GI50 with SF-268 was 26.5 µM (inactive); in the test on SF-295, 22.1 µM (inactive); in the test with SF-539 it was 18.5 µM (inactive); in the test on SN12C, 42.1 µM (inactive); in the test on SNB-19 it was 42.1 µM (inactive); in the test with SNB-75, 31.2 µM (inactive). Besides, the GI50 in the test with SW-620 was 24.9 µM (inactive); in the test with TK-10, > 49.5 µM (inactive).

As for `O=C(c1no[n+]([O-])c1C(=O)c1csc2ccccc12)c1csc2ccccc12`, the GI50 with 786-0 was 0.27 µM (active); in the test with DU-145 it was 17.9 µM (inactive); in the test with Hs-578T it was 10.2 µM (inactive); with IGROV-1, 1.4 µM (inactive); with KM12, 6.95 µM (inactive); in the test on MDA-MB-231, 5.64 µM (inactive). Further, the GI50 is 8.93 µM (inactive) in the test with MDA-MB-435; 3.19 µM (inactive) in the test on Malme-3M; 14.1 µM (inactive) in the test with NCI-H23; 3.09 µM (inactive) in the test on OVCAR-8; 0.521 µM (active) in the test with RPMI-8226; 7.19 µM (inactive) with RXF 393. Moreover, the GI50 in the test on SF-268 was 6.27 µM (inactive); in the test with SF-295, 14.6 µM (inactive); in the test with SF-539 it was 2.61 µM (inactive); in the test with SN12C, 4.37 µM (inactive); with SNB-19, 16.9 µM (inactive); in the test with SNB-75, 15.1 µM (inactive). Moreover, the GI50 in the test with SW-620 is 2.21 µM (inactive); in the test on TK-10 it was 1.99 µM (inactive).

Take `C/C(=C/CNc1ncnc2c1ncn2CCC#N)CO`: the GI50 in the test on 786-0, in the test on DU-145, in the test with Hs-578T, with IGROV-1, in the test with KM12 and in the test with MDA-MB-231 was > 100 µM (inactive) in each case. Also, the GI50 with MDA-MB-435, in the test on Malme-3M, in the test on NCI-H23, in the test on OVCAR-8, with RPMI-8226 and in the test with RXF 393 was > 100 µM (inactive) throughout. Further, the GI50 in the test on SF-268, in the test on SF-295, in the test with SF-539, in the test on SN12C, with SNB-19 and with SNB-75 was > 100 µM (inactive) throughout. Moreover, the GI50 with SW-620 and with TK-10 was > 100 µM (inactive) throughout.

With `CCCC(CC)c1cc(O)c(O)cc1C(CC)CCC` (stereo not given), the GI50 in the test on 786-0, in the test on DU-145, with Hs-578T, with IGROV-1, with KM12 and with MDA-MB-231 was > 10 µM (inactive) in each case. Besides, the GI50 in the test on MDA-MB-435, with Malme-3M, in the test with NCI-H23, with OVCAR-8, with RPMI-8226 and in the test with RXF 393 was > 10 µM (inactive) in each case. The GI50 with SF-268, in the test on SF-295, with SF-539, with SN12C, in the test with SNB-19 and in the test on SNB-75 was > 10 µM (inactive) throughout. In addition, the GI50 with SW-620 and in the test with TK-10 was > 10 µM (inactive) each time.
